The source of these data is patent publication EP0845210A1, “New herbicidal compositions” (RHONE-POULENC AGRICULTURE LTD., priority 1994, dated 1996).

SMILES strings stand for the structures.

What all share (experiment): Procedure D: pre-emergence field trial (Volga, Brookings), visual assessment about 26 days after treatment
Type in all cases: in vivo

The subject of experiment [1] is Abutilon theophrasti. Conditions: A 37.5 g/ha alone. The protocol:
(§1) The following experiments were carried out pre-emergence of the weed species. Compound A, formulated as a wettable dispersible granule as described in Example 1 herebelow (750g per kilogram) and each acetochlor (used as the commercially available formulation "Harness" (trade mark), an emulsifiable concentrate containing 960g of acetochlor per kilogram, and which also contains the safening agent flurazole, metolachlor (used as the commercially available formulation "Duelor" (trade mark), an emulsifiable concentrate emulsifiable concentrate containing 960g of metolachlor per kilogram), alachlor (used as the commercially available formulation "Lasso" (trade mark), an emulsifiable concentrate containing 480g of alachlor per kilogram) and dimethenamid (used as the commercially available formulation "Frontiere" (trade mark), a flowable containing 900g/l active ingerident) were dissolved in water and sprayed at a volume rate of 187 litres/hectare on various test plots (10 square meters in area) either alone or in mixtures. The soil was a clay-loam, with a pH of 7, the experiments being conducted in June in Volga, Brookings, U.S.A. The various weed and crop species were drill sown and the various compositions were applied on the same day after drilling. Three replicates were performed and the efficacy of the various mixtures were determined by visual assessment of the percentage phytotoxicity in comparison with an untreated control. Assessment was made about 26 days after treatment. In the Tables which follow the dose is expressed in grammes per hectare and the figures in brackets represent the expected results according to the Colby formula.

The test system of experiment [2] is Panicum miliaceum. The settings on record: A 375 g/ha alone. The protocol:
as §1

In experiment [3] the test system is Helianthus annuus. Conditions: A 37.5 g/ha alone. The protocol: as §1

Turning to `CS(=O)(=O)c1cc(C(F)(F)F)ccc1C(=O)c1cnoc1C1CC1` [Compound A, 5-cyclopropyl-4-(2-methylsulphonyl-4-trifluoromethyl)benzoylisoxazole], the percentage phytotoxicity in experiment [1] was determined as 93%; in experiment [2], 65%; in experiment [3], 18%.
